PubChem BioAssay (NCI)
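Where inhibition never reached the appropriate level, the endpoint shown equals the highest concentration tested. Otherwise, values were interpolated linearly from a five-concentration, 48-hour dose response in 96-well plates. TGI: total growth inhibition.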

How the values were obtained:
Experiment in all cases: NCI-60 cell line screen, 48 h
SK-OV-3 ovarian = test system: SK-OV-3 ovarian
OVCAR-8 ovarian = test system: OVCAR-8 ovarian
UO-31 renal = test system: UO-31 renal
RXF 393 renal = test system: RXF 393 renal
LOX IMVI melanoma = test system: LOX IMVI melanoma
RPMI-8226 leukemia = test system: RPMI-8226 leukemia
CAKI-1 renal = test system: CAKI-1 renal
HOP-62 NSCLC = test system: HOP-62 NSCLC

| Structure (SMILES) | TGI (SK-OV-3 ovarian) [µM] | TGI (OVCAR-8 ovarian) [µM] | TGI (UO-31 renal) [µM] | TGI (RXF 393 renal) [µM] | TGI (LOX IMVI melanoma) [µM] | TGI (RPMI-8226 leukemia) [µM] | TGI (CAKI-1 renal) [µM] | TGI (HOP-62 NSCLC) [µM] |
| --- | --- | --- | --- | --- | --- | --- | --- | --- |
| Cn1cc(C2(C)CC(C)(C)c3c2n(C)c2ccccc32)c2ccccc21 (centres undefined) | > 100 | > 100 | > 100 | > 100 | > 100 | > 100 | > 100 | > 100 |
| COC(=O)C(Cc1nc2ccccc2[nH]c1=O)C(NO)C(=O)Nc1c(Cl)cc([N+](=O)[O-])cc1Cl (centres undefined) | > 100 | > 100 | > 100 | 50.2 | – | > 100 | > 100 | > 100 |
| COC(=O)C(CC(=O)Nc1ccc(C)cc1)C(=O)C(=O)Nc1c(C(C)C)cccc1C(C)C (centres undefined) | > 100 | > 100 | > 100 | > 100 | > 100 | > 100 | > 100 | > 100 |
| O=C(/C=C/c1ccc(Cl)c(Cl)c1)c1ccc2ccccc2c1 | > 100 | > 100 | > 100 | > 100 | > 100 | > 100 | > 100 | > 100 |
| CCOC(=O)C(=O)Nc1ccccc1CC | > 100 | > 100 | > 100 | > 100 | > 100 | > 100 | > 100 | > 100 |
| Cc1[nH]c(=O)nc2[nH][nH]c(=O)c12 | > 100 | > 100 | – | > 100 | > 100 | > 100 | > 100 | > 100 |
| Cc1cc(NS(=O)(=O)c2ccc(Nc3c4ccccc4nc4c(C(=O)N5CCN(CCO)CC5)cccc34)cc2)no1 | > 100 | > 100 | > 100 | > 100 | > 100 | – | > 100 | > 100 |
| O=C(N/N=C/c1cc(Br)ccc1O)N/N=C/c1cc(Br)ccc1O | > 100 | 21.1 | > 100 | > 100 | > 100 | – | > 100 | > 100 |
| CCCN(CCC)C(=O)c1c([N+](=O)[O-])cc(C(F)(F)F)cc1[N+](=O)[O-] | > 100 | > 100 | > 100 | 79.7 | > 100 | > 100 | > 100 | > 100 |
| COc1cc2[nH]c3c(c2cc1OC)CCN[C@]31CC[C@]2(CC3c4c(cc(OC)c(O)c42)CCN3C)C[C@H]1OC (some centres undefined) | 59.1 | 50 | – | 18.6 | 56 | 41.9 | > 100 | 48 |
| O=C1c2ccccc2C(=O)C1(O)c1c[nH]c2ccccc12 | > 100 | > 100 | > 100 | – | > 100 | > 100 | > 100 | > 100 |
| c1ccc(C2N3CCCCC3[C@@H]3c4[nH]c5ccccc5c4CCN23)nc1 (some centres undefined) | > 100 | > 100 | > 100 | > 100 | – | > 100 | > 100 | > 100 |
| COc1ccc(CN2CC(C)(C)C2=O)c(OC)c1 | > 100 | > 100 | > 100 | > 100 | > 100 | > 100 | – | > 100 |
| O=C(O)CNS(=O)(=O)c1ccc(NC(=O)c2ccc([N+](=O)[O-])cc2)cc1 | > 100 | > 100 | > 100 | > 100 | > 100 | > 100 | > 100 | – |
| Nc1ccccc1/C(O)=C1/CCOC1=O | > 100 | > 100 | > 100 | – | – | > 100 | > 100 | > 100 |
| Cc1nnc(NS(=O)(=O)c2ccc(N=Nc3cc(N=Nc4ccc(S(=O)(=O)Nc5nnc(C)s5)cc4)c4c(NC(=O)C(Cl)Cl)cccc4c3OC(=O)C(Cl)Cl)cc2)s1 (tested in a mixture with another compound) | – | 43.7 | > 100 | 55.9 | > 100 | 21 | > 100 | > 100 |
| [N-]=[N+]=C1C(=O)NN=C1c1ccccc1 | > 100 | > 100 | – | > 100 | > 100 | > 100 | > 100 | – |
| COc1ccc2c3c([nH]c2c1[N+](=O)[O-])C(C)N(C)CC3 (centres undefined) | > 100 | > 100 | > 100 | – | – | > 100 | > 100 | > 100 |
| CCOC(=O)N[C@@H]1C(CC(=O)OC)O[C@H]2OC(C)(C)O[C@H]21 (some centres undefined) | > 100 | – | > 100 | > 100 | > 100 | > 100 | > 100 | > 100 |
| C=C(C)CCN[Si](c1ccccc1)(c1ccccc1)C(C)(C)C | 69 | 36 | 26.9 | 32.4 | 31.7 | 62.2 | – | 31.4 |
| CN(Cc1ccccc1)C(=O)c1ccccc1C(=O)O | > 100 | > 100 | > 100 | > 100 | > 100 | > 100 | > 100 | – |
